Measured values reported in ChEMBL document CHEMBL1770059, “Identification of chemicals to inhibit the kinase activity of leucine-rich repeat kinase 2 (LRRK2), a Parkinson's disease-associated protein” (Bioorg Med Chem Lett, 2011).

What was measured:
[1] = molecular target: T1, Serine/threonine-protein kinase TAO2 (Homo sapiens) (UniProt Q9UL54); experiment: Inhibition of TAO2 assessed as residual activity of enzyme at 10 uM
T1 sequence (whole entry): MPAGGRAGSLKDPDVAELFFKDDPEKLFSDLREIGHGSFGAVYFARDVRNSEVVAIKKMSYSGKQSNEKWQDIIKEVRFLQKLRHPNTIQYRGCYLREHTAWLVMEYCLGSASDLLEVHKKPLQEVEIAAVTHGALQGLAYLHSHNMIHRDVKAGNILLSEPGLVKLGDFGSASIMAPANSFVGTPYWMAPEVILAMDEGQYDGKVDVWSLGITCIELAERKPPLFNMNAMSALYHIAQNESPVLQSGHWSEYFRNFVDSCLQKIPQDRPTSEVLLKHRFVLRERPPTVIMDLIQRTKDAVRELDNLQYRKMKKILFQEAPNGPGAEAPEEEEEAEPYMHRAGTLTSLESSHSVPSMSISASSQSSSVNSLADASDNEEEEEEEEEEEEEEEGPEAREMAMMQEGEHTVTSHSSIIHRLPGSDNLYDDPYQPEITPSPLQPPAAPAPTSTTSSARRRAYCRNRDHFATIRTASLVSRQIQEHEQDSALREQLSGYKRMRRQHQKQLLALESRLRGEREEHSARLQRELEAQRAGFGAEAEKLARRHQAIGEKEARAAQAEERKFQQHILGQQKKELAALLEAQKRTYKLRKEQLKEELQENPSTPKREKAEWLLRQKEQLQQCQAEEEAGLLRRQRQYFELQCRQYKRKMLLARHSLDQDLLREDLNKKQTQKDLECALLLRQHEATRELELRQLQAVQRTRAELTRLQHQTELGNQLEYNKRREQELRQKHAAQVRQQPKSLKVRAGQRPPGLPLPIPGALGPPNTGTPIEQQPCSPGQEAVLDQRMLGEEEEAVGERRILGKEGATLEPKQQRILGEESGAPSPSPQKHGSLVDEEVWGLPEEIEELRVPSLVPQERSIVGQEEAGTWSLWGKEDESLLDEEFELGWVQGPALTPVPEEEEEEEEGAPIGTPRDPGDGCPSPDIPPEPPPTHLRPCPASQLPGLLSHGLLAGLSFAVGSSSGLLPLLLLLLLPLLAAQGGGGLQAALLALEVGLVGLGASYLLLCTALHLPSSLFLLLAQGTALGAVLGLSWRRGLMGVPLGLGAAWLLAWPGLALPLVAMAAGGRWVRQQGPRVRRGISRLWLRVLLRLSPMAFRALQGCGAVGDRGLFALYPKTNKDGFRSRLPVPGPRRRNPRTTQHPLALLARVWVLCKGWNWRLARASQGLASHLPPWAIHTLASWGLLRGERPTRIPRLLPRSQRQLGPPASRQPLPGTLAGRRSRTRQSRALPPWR

[2] = molecular target: T2, Mitogen-activated protein kinase kinase kinase 7 (Homo sapiens) (UniProt O43318); experiment: Inhibition of TAK1 assessed as residual activity of enzyme at 10 uM
T2 sequence (whole entry): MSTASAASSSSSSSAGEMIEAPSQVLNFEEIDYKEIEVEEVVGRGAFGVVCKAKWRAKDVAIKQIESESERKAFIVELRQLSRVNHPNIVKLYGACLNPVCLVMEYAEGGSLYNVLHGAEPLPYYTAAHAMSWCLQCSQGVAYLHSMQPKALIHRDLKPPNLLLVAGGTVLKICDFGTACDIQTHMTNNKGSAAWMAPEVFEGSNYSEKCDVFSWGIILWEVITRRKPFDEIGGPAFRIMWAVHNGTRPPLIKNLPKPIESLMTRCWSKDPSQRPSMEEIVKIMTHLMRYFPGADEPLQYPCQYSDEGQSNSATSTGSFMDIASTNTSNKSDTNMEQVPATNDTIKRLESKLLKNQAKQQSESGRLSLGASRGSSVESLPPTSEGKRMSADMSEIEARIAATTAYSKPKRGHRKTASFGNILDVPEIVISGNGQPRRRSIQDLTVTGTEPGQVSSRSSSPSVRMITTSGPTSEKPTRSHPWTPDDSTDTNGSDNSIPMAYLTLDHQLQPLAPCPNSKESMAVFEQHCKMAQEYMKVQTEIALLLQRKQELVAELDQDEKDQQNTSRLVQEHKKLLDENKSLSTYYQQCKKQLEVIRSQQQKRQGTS

[3] = molecular target: RAF proto-oncogene serine/threonine-protein kinase (Homo sapiens) (UniProt P04049); experiment: Inhibition of c-Raf assessed as residual activity of enzyme at 10 uM
Sequence of RAF proto-oncogene serine/threonine-protein kinase (Homo sapiens) (P04049 whole entry): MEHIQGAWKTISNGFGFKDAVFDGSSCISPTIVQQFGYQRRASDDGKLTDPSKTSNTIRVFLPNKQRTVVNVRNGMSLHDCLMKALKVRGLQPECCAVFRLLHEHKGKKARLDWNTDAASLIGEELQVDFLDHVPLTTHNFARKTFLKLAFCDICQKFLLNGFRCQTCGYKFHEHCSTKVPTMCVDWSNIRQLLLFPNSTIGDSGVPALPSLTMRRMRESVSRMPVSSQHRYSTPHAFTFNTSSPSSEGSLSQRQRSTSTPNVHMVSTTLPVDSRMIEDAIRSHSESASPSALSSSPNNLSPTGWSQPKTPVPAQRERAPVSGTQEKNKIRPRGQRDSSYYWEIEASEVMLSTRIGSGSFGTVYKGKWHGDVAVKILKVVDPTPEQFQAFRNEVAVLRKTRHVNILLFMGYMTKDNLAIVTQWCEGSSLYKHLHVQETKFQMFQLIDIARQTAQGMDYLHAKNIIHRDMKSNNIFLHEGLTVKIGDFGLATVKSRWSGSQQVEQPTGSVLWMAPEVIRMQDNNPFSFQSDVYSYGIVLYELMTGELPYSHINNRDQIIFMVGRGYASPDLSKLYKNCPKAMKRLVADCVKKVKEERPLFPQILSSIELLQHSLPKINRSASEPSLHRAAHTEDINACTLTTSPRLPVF

[4] = molecular target: Serine/threonine-protein kinase mTOR (Homo sapiens) (UniProt P42345); experiment: Inhibition of mTOR assessed as residual activity of enzyme at 25 uM
[5] = Neurotoxicity in rat primary cortical neurons assessed as cell survival at 100 uM after 24 hrs by MTT assay; type: toxicity, cell-based; details: cerebral cortex neuron
[6] = molecular target: T2, Mitogen-activated protein kinase kinase kinase 7 (Homo sapiens); experiment: Inhibition of TAK1 assessed as residual activity of enzyme at 25 uM
[7] = molecular target: Glycogen synthase kinase-3 beta (Homo sapiens) (UniProt P49841); experiment: Inhibition of GSK3-beta assessed as residual activity of enzyme at 10 uM
Sequence of Glycogen synthase kinase-3 beta (Homo sapiens) (P49841 whole entry, looked up): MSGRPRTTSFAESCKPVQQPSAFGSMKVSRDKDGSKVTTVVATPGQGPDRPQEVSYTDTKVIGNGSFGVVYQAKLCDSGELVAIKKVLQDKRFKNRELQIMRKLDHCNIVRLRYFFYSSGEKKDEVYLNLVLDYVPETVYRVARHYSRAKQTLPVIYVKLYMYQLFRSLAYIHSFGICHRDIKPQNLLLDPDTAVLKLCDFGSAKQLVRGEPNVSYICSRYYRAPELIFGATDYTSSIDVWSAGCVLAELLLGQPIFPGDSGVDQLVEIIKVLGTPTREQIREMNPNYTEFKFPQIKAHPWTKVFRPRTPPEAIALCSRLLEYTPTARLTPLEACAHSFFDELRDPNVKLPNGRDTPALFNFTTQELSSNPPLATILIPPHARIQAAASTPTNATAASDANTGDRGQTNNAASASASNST

Q: Which Activity [1] does the source give for Cc1cc(N/N=C/c2ccncc2)nc2ccccc12 here?
A: 89%

Q: What about the Activity [2] of the same compound?
A: 68%

Q: And the Activity [3]?
A: 92%

Q: What about the Activity [4] of the same compound?
A: 99%

Q: And the Activity [5]?
A: Toxic

Q: What about the Activity [6] of the same compound?
A: 48%

Q: And the Activity [7]?
A: 99%
